Reference: patent US20100048398A1, “HERBICIDAL COMBINATION” (SYNGENTA CROP PROTECTION, INC., priority 2006, published 2010)

Key:
Experiment in all cases: Glasshouse peri-emergence herbicide test, damage to plant
Assay type in all cases: in vivo
Conditions in all cases: sprayed six days after sowing (peri-emergence), evaluated after 14 days; rate gai/ha: Prosulfocarb 2400, Flumioxazin 20, combination 2400 + 20
POAAN = Poa annua = tested on: POAAN = Poa annua
Description: (§1) Seeds of a variety of test species were sown in standard soil. After cultivation for six days (peri-emergence) under controlled conditions in a glasshouse (at 24/16° C., day/night; 14 hours light; 65% humidity), the plants were sprayed with an aqueous spray solution comprising the technical active ingredient(s). The test plants were then grown in a glasshouse under controlled conditions in a glasshouse (at 24/16° C., day/night; 14 hours light; 65% humidity) and watered twice daily. After 14 days, the test was evaluated (100=total damage to plant; 0=no damage to plant).

[1] = tested on: ALOMY = Alopecurus myosuroides
Description: as §1

GALAP = Galium aparine = tested on: GALAP = Galium aparine
Description: as §1

[2] = tested on: APESV = Apera spica-venti
Description: as §1

[3] = tested on: VERPE = Veronica persicae
Description: as §1

HORVW = Hordeum vulgare = tested on: HORVW = Hordeum vulgare
Description: as §1

[4] = tested on: LOLMU = Lolium multiflorum
Description: as §1

TRZAW = Tritcum aestivum = tested on: TRZAW = Tritcum aestivum
Description: as §1

AVEFA = Avena fatua = tested on: AVEFA = Avena fatua
Description: as §1

SMILES: C#CCN1C(=O)COc2cc(F)c(N3C(=O)C4=C(CCCC4)C3=O)cc21 [Flumioxazin, flumioxazin]
- damage to plant (100=total damage; 0=no damage), POAAN (POAAN = Poa annua): 5
- damage to plant (100=total damage; 0=no damage), ALOMY [1]: 33
- damage to plant (100=total damage; 0=no damage), GALAP (GALAP = Galium aparine): 73
- damage to plant (100=total damage; 0=no damage), APESV [2]: 60
- damage to plant (100=total damage; 0=no damage), VERPE [3]: 99
- damage to plant (100=total damage; 0=no damage), HORVW (HORVW = Hordeum vulgare): 0
- damage to plant (100=total damage; 0=no damage), LOLMU [4]: 0
- damage to plant (100=total damage; 0=no damage), TRZAW (TRZAW = Tritcum aestivum): 8
- damage to plant (100=total damage; 0=no damage), AVEFA (AVEFA = Avena fatua): 8

SMILES: CCCN(CCC)C(=O)SCc1ccccc1 [Prosulfocarb, prosulfocarb]
- damage to plant (100=total damage; 0=no damage), POAAN (POAAN = Poa annua): 0
- damage to plant (100=total damage; 0=no damage), ALOMY [1]: 78
- damage to plant (100=total damage; 0=no damage), GALAP (GALAP = Galium aparine): 78
- damage to plant (100=total damage; 0=no damage), APESV [2]: 95
- damage to plant (100=total damage; 0=no damage), VERPE [3]: 88
- damage to plant (100=total damage; 0=no damage), LOLMU [4]: 30
- damage to plant (100=total damage; 0=no damage), AVEFA (AVEFA = Avena fatua): 55
